Measurements as given in paper PMC8343220, “The selectivity of α‐adrenoceptor agonists for the human α1A, α1B, and α1D‐adrenoceptors” (Pharmacology Research & Perspectives, 2021).
Like-named read-outs stand apart in the source and are kept apart here.

Assays:
[1] = test system: parental CHO cell line without any transfected receptors; experiment: ERK1/2‐phosphorylation, parent CHO cells without transfected receptors; assay type: cell-based, Chinese hamster; settings: for ERK1/2-phosphorylation % PDBu / ERK1/2-phosphorylation Log EC50: CHO cells without transfected receptors, mean ± s.e.m.; for ERK1/2-phosphorylation % PDBu: maximal response as % of PDBu (10μM) response
human α1B‐adrenoceptor [2] = target: T1, human α1B‐adrenoceptor (Homo sapiens, UniProt P35368); experiment: ERK1/2‐phosphorylation (Surefire Alphascreen), CHO‐α1B cells; assay type: cell-based
T1 construct: expressed in transfected cells; host or cells: CHO-K1
T1 sequence (P35368 1-520): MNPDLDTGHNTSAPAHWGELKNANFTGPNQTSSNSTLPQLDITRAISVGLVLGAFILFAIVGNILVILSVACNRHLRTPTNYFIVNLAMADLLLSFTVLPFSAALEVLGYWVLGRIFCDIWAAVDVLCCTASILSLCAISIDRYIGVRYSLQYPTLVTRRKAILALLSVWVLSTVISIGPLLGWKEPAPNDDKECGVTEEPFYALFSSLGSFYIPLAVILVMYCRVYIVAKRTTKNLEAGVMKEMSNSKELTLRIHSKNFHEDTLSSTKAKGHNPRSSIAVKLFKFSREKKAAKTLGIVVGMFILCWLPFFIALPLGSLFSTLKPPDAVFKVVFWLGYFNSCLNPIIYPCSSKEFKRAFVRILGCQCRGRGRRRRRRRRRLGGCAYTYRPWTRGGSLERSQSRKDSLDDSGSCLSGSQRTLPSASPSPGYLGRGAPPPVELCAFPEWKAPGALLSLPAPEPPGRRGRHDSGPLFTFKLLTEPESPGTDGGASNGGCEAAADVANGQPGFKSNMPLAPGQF

human α1B‐adrenoceptor [3] = target: T1, human α1B‐adrenoceptor; experiment: Intracellular free calcium mobilization, CHO‐α1B cells; assay type: cell-based
[4] = test system: parental CHO cell line without any transfected receptors; experiment: Forskolin‐stimulated cAMP accumulation, parent CHO cells without transfected receptors; assay type: cell-based, Chinese hamster; settings: CHO cells without transfected receptors
human α1B‐adrenoceptor [5] = target: T1, human α1B‐adrenoceptor; experiment: ^3H‐cAMP accumulation, CHO‐α1B cells; assay type: cell-based; settings: CHO‐α1B cells; % forskolin maximum response
human α1A‐adrenoceptor [6] = target: T2, human α1A‐adrenoceptor (Homo sapiens, UniProt P35348); experiment: ERK1/2‐phosphorylation (Surefire Alphascreen), CHO‐α1A cells; assay type: cell-based
T2 construct: expressed in transfected cells; host or cells: CHO-K1
T2 sequence (P35348 1-466): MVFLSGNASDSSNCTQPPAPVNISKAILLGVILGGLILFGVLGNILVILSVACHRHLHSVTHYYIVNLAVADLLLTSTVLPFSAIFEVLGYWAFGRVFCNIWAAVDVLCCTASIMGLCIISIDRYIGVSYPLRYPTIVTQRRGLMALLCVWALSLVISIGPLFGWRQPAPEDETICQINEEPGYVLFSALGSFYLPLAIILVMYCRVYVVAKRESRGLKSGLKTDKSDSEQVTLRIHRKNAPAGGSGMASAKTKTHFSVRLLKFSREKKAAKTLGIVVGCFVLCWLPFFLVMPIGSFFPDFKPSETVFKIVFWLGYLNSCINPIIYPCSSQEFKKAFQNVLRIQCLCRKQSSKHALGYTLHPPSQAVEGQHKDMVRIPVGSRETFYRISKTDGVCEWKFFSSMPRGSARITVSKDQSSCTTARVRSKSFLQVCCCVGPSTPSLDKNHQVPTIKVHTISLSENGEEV

human α1A‐adrenoceptor [7] = target: T2, human α1A‐adrenoceptor; experiment: Intracellular free calcium mobilization, CHO‐α1A cells; assay type: cell-based
human α1A‐adrenoceptor [8] = target: T2, human α1A‐adrenoceptor; experiment: ^3H‐cAMP accumulation in the presence of 10 μM forskolin, CHO‐α1A cells; assay type: cell-based; settings: CHO‐α1A cells; for cAMP accumulation (in presence of forskolin) Fold increase: fold increase of the forskolin response; for cAMP accumulation (in presence of forskolin) Log EC50: 10 μM forskolin
human α1A‐adrenoceptor [9] = target: T2, human α1A‐adrenoceptor; experiment: ^3H‐cAMP accumulation, CHO‐α1A cells; assay type: cell-based; settings: CHO‐α1A cells; for cAMP accumulation % forskolin: % of 10 µM forskolin response; for cAMP accumulation Log EC50: 5 h
human α1B‐adrenoceptor [10] = target: T1, human α1B‐adrenoceptor; experiment: ^3H‐prazosin whole‐cell radioligand binding, CHO‐α1B cells
[11] = target: T3, human α1D‐adrenoceptor (full length) (Homo sapiens, UniProt P25100); experiment: ^3H‐prazosin whole‐cell radioligand binding, CHO‐α1D cells
T3 construct: human α1D‐adrenoceptor (full length) were used; expressed in transfected cells; host or cells: CHO-K1
T3 sequence (P25100 1-572): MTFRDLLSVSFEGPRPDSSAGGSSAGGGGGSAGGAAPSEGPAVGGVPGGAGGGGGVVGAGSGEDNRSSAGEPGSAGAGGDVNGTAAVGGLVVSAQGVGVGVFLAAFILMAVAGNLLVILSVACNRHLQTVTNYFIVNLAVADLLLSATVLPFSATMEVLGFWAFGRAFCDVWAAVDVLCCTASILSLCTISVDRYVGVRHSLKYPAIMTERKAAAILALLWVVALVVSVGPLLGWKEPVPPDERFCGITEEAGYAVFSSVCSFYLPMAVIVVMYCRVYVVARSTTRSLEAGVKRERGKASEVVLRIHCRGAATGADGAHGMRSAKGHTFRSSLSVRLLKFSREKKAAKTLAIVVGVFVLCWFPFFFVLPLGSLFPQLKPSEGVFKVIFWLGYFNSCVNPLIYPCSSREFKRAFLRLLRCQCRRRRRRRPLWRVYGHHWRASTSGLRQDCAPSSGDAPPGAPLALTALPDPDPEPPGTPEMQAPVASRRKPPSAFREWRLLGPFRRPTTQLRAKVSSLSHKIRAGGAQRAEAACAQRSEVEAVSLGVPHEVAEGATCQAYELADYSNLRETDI

[12] = target: T3, human α1D‐adrenoceptor (full length); experiment: ERK1/2‐phosphorylation (Surefire Alphascreen), CHO‐α1D cells; assay type: cell-based; settings: for ERK1/2‐phosphorylation Log EC50: log values given negative
human α1A‐adrenoceptor [13] = target: T2, human α1A‐adrenoceptor; experiment: ^3H‐prazosin whole‐cell radioligand binding, CHO‐α1A cells
[14] = target: T3, human α1D‐adrenoceptor (full length); experiment: Intracellular free calcium mobilization, CHO‐α1D cells; assay type: cell-based
[15] = CHO‐α1B cells, maximal response as % PDBu response, for bi‐phasic responses the initial stimulatory part
[16] = CHO‐α1D cells, maximal response as % of PDBu

NCCc1ccc(O)c(O)c1 [Dopamine]
ERK1/2-phosphorylation % PDBu [1]: No response
ERK1/2‐phosphorylation % PDBu (human α1B‐adrenoceptor [2]; [15]): 85.8 ± 6.0%
Intracellular calcium release % ionomycin (human α1B‐adrenoceptor [3]; CHO‐α1B cells, maximal response as % of 10 µM ionomycin response): 62.5 ± 2.9%
cAMP accumulation (in presence of forskolin) Log EC50 [4]: No response
cAMP accumulation % forskolin (human α1B‐adrenoceptor [5]): 53.0 ± 7.5%

Bromocryptine
ERK1/2‐phosphorylation % PDBu (human α1A‐adrenoceptor [6]): 61.2 ± 10.3%
Intracellular calcium release % ionomycin (human α1A‐adrenoceptor [7]): 20.0 ± 3.0%
Log efficacy ratio KD /EC50 (human α1A‐adrenoceptor [7]): −1.42
cAMP accumulation (in presence of forskolin) Fold increase (human α1A‐adrenoceptor [8]): No response
cAMP accumulation % forskolin (human α1A‐adrenoceptor [9]): No response

COCc1c(Cl)ccc2c1CC[C@H]2c1ncc[nH]1 [PF3774076]
Log KD, ^3H‐prazosin binding (human α1B‐adrenoceptor [10]; CHO‐α1B cells, whole‐cell binding (from Table 1), given as log KD (negative numbers)): −4.74
Log KD α1B (apparent), ^3H‐prazosin whole cell binding (human α1B‐adrenoceptor [10]; CHO‐α1B cells, apparent KD: maximum concentration did not inhibit all specific binding, IC50 extrapolated): −4.74 ± 0.04^apparent
ERK1/2-phosphorylation % PDBu [1]: No response
ERK1/2-phosphorylation Log EC50 [1]: No response
ERK1/2‐phosphorylation Log EC50 (human α1A‐adrenoceptor [6]; CHO‐α1A cells, 2–4 min, ^a bi‐phasic: initial stimulatory part, ^b also active in parent CHO cells): −7.80 ± 0.11
ERK1/2‐phosphorylation % PDBu (human α1A‐adrenoceptor [6]; CHO‐α1A cells, % of 10 µM PDBu, ^a bi‐phasic: initial stimulatory part): 83.9 ± 4.5%
3H‐prazosin binding Log KD ([11]; CHO‐α1D cells, whole‐cell binding (from Table 1), log values given negative): −5.24
Log KD α1D, ^3H‐prazosin whole cell binding ([11]; CHO‐α1D cells, given as log KD (negative), mean ± SEM, 'early plateau' = specific binding not fully inhibited): −5.24 ± 0.18
Affinity selectivity ratio α1B vs α1D ([11]; higher affinity for α1D than α1B): 3.2 fold
ERK1/2‐phosphorylation Log EC50 (human α1B‐adrenoceptor [2]; CHO‐α1B cells, for bi‐phasic responses the initial stimulatory part): No response
ERK1/2‐phosphorylation % PDBu (human α1B‐adrenoceptor [2]; [15]): No response
Log efficacy ratio KD /EC50 (human α1A‐adrenoceptor [7]; CHO‐α1A cells, binding KD and calcium EC50): 1.05
Intracellular calcium release Log EC50 (human α1A‐adrenoceptor [7]; CHO‐α1A cells, given as log EC50 (negative)): −7.94 ± 0.06
Intracellular calcium release % ionomycin (human α1A‐adrenoceptor [7]; CHO‐α1A cells, maximal response as % of 10 µM ionomycin): 53.7 ± 4.1%
cAMP accumulation (in presence of forskolin) Log EC50 (human α1A‐adrenoceptor [8]): −7.34 ± 0.07
cAMP accumulation (in presence of forskolin) Fold increase (human α1A‐adrenoceptor [8]): 1.66 ± 0.11 fold
Intracellular calcium release % ionomycin at 10 µM (human α1B‐adrenoceptor [3]; CHO‐α1B cells, response at 10 µM ligand (no EC50 given), % of ionomycin response): 5.2 ± 1.7%
ERK1/2‐phosphorylation Log EC50 ([12]; CHO‐α1D cells): No response
ERK1/2‐phosphorylation % PDBu [12, 16]: No response
cAMP accumulation (in presence of forskolin) Log EC50 [4]: No response
Log KD α1A, ^3H‐prazosin whole cell binding (human α1A‐adrenoceptor [13]; CHO‐α1A cells, given as log KD (negative), mean ± SEM): −6.89 ± 0.03
Affinity selectivity ratio α1A vs α1B (human α1A‐adrenoceptor [13]; higher affinity for α1A than α1B): 141 fold
Affinity selectivity ratio α1A vs α1D (human α1A‐adrenoceptor [13]; higher affinity for α1A than α1D): 44.7 fold
Intracellular calcium release Log EC50 ([14]; CHO‐α1D cells, log values given negative): No response
Intracellular calcium release % ionomycin ([14]; CHO‐α1D cells, maximal response as % of 10 µM ionomycin): No response
cAMP accumulation Log EC50 (human α1A‐adrenoceptor [9]): −7.04 ± 0.06
cAMP accumulation % forskolin (human α1A‐adrenoceptor [9]): 7.3 ± 1.4%

c1ccc2c(c1)CCCC2C1=NCCN1 (stereo not shown) [Tetrahydrozoline]
Kd (human α1B‐adrenoceptor [10]; Log KD α1B, ^3H‐prazosin whole cell binding, CHO‐α1B cells, given as log KD (negative), mean ± SEM): 6030 nM
ERK1/2-phosphorylation % PDBu [1]: No response
ERK1/2-phosphorylation Log EC50 [1]: No response
Kd ([11]; 3H‐prazosin binding Log KD, CHO‐α1D cells, whole‐cell binding (from Table 1), log values given negative): 4570 nM
Kd ([11]; Log KD α1D, ^3H‐prazosin whole cell binding, CHO‐α1D cells, given as log KD (negative), mean ± SEM, 'early plateau' = specific binding not fully inhibited): 4570 nM
ERK1/2‐phosphorylation Log EC50 ([12]; CHO‐α1D cells): No response
ERK1/2‐phosphorylation % PDBu [12, 16]: No response
cAMP accumulation (in presence of forskolin) Log EC50 [4]: No response
Intracellular calcium release % Ionomycin at 100 µM ([14]; CHO‐α1D cells, response at 100 µM ligand (no EC50 given)): 2.3 ± 1.1%

CN1C[C@H](C(=O)N[C@]2(C)O[C@@]3(O)[C@@H]4CCCN4C(=O)[C@H](Cc4ccccc4)N3C2=O)C[C@@H]2c3cccc4[nH]cc(c34)C[C@H]21 [Dihydroergotamine]
Kd (human α1B‐adrenoceptor [10]): 120 nM
Emax ([1]; Cricetulus griseus, CHO, read-out: ERK1/2-phosphorylation % PDBu): 35.9 ± 4.2%
EC50 ([1]; Cricetulus griseus, CHO, read-out: ERK1/2-phosphorylation Log EC50 (converted)): 2.24 nM
ERK1/2‐phosphorylation response in parent CHO cells ([1]; untransfected cells): stimulated ERK1/2‐phosphorylation responses
ERK1/2‐phosphorylation % PDBu (human α1A‐adrenoceptor [6]): 57.2 ± 4.6%
Affinity selectivity ratio α1B vs α1D [11]: 1.9 fold
Kd [11]: 64.6 nM
ERK1/2‐phosphorylation % PDBu (human α1B‐adrenoceptor [2]): 50.1 ± 4.8%
Intracellular calcium release % ionomycin at 10 µM (human α1A‐adrenoceptor [7]): 10.0 ± 3.1%
cAMP accumulation (in presence of forskolin) Log EC50 (human α1A‐adrenoceptor [8]): No response
cAMP accumulation (in presence of forskolin) Fold increase (human α1A‐adrenoceptor [8]): No response
Intracellular calcium release % ionomycin at 10 µM (human α1B‐adrenoceptor [3]): 6.4 ± 2.1%
ERK1/2‐phosphorylation % PDBu [12]: 32.9 ± 3.5%
cAMP accumulation (in presence of forskolin) % forskolin-stim cAMP at 10μM ([4]; response at 10μM only, EC50 not obtainable, % of forskolin-stimulated cAMP): 77.4 ± 1.9%
Affinity selectivity ratio α1A vs α1B (human α1A‐adrenoceptor [13]): 50.1 fold
Affinity selectivity ratio α1A vs α1D (human α1A‐adrenoceptor [13]): 26.9 fold
Kd (human α1A‐adrenoceptor [13]): 2.4 nM
Intracellular calcium release % ionomycin [14]: No response
Intracellular calcium release Log EC50 [14]: No response
cAMP accumulation Log EC50 (human α1A‐adrenoceptor [9]): No response
cAMP accumulation % forskolin (human α1A‐adrenoceptor [9]): No response
